Test results taken from patent US20180370918A1, “SORAFENIB HEMI-P-TOSYLATE MONOHYDRATE CRYSTAL AND PREPARATION PROCESS THEREOF” (CHIA TAI TIANQING PHARMACEUTICAL GROUP CO., LTD., priority 2015, published 2018).

Key:
[1] = Stability test (Chinese Pharmacopoeia 2010, Guideline for Stability Test of Bulk Drug), purity by HPLC; assay type: physicochemical
Description: Chromatographic column: Agilent peptide map chromatographic column (3.0×150 mm, 2.7 μm)
Mobile phase A: phosphate buffer solution (monopotassium phosphate (0.79 g) was weighted and dissolved in water, then diluted to 1000 ml, and further adjusted to pH=2.4 with phosphoric acid)
Mobile phase B: ethanol-acetonitrile (40:60)
Detection wavelength: 235 nm for detection
Column temperature: 55° C.
Solvent: mobile phase A-mobile phase B (1:3)
Preparation of a solution of a test sample: an appropriate amount of the test sample was weighted and dissolved in the solvent [mobile phase A-mobile phase B (1:3)], then diluted to a solution which comprises about 0.16 mg of sorafenib per 1 ml as the solution of the test sample.
The stability test for the sorafenib hemi-p-tosylate monohydrate crystal of the present invention was conducted according to the Chinese Pharmacopoeia (2010), Part 11, Appendix XIX C: Guideline for Stability Test of Bulk Drug and Pharmaceutical Preparation.

[2] = Hygroscopicity test (Chinese Pharmacopoeia 2010, Guideline for Hygroscopicity Test of Drug); assay type: physicochemical
Description: The hygroscopicity test for the sorafenib hemi-p-tosylate monohydrate crystal of the present invention was conducted according to the Chinese Pharmacopoeia (2010), Part II, Appendix XIX J: Guideline for Hygroscopicity Test of Drug.

Purity ([1]; Day 0): 99.96%
Purity ([1]; Exposure test to light (luminance: 6000 Lux), standing for 10 days): 99.97%
Purity ([1]; Shading test (luminance: 6000 Lux), standing for 10 days): 99.96%
Purity ([1]; Standing for 6 months at 25° C. ± 2° C. and humidity of 60% ± 5%): 99.96%
Purity ([1]; Standing for 10 days at 25° C. and humidity of 92.5% ± 5%): 99.96%
Purity ([1]; Standing for 10 days at 40° C.): 99.96%
Purity ([1]; Standing for 10 days at 60° C.): 99.95%
Stability (conclusion in words) ([1]; results of Table 4): highly stable
Hygroscopic weight grain (%) [2]: 0.07%
SMILES: CNC(=O)c1cc(Oc2ccc(NC(=O)Nc3ccc(Cl)c(C(F)(F)F)c3)cc2)ccn1 [sorafenib hemi-p-tosylate monohydrate]
